Laboratory results taken from US9623016B2, “Antibacterial compounds” (Emergent Virology LLC, priority 2013, dated 2017).
Read-outs that look alike come from different tables or passages of the source.

Columns and labels:
S. aureus (USA300) = assay: Minimum Inhibitory Concentration (MIC); format: cell-based
Method: (§1) The MIC assay is a technique used to determine the lowest concentration of a particular antibiotic needed to inhibit visible growth of bacteria. In this method, two fold serial dilutions of the compound were prepared in broth media. An inoculum of overnight bacterial cultures will be prepared in the same broth medium. The serial dilution tubes will be inoculated with 0.025 ml of undiluted over-night culture (1:100), a 1×10-2 dilution (1:10,000), or a 1×10-4 dilution (1:1,000,000) of bacterial suspension. Results were recorded after 24 hour incubation at 35° C. without shaking by measuring OD600. The MIC is determined by the lowest concentration of compound where no growth is visible.

E. coli (K12) [1] = system: E. coli (K12)
Method: as §1

E. coli (WT) [2] = system: E. coli (WT)
Method: as §1

P. aeruginosa 4858 = system: P. aeruginosa 4858
Method: as §1

P. aeruginosa 4961 [3] = system: P. aeruginosa 4961
Method: as §1

P. aeruginosa 4990 [4] = system: P. aeruginosa 4990
Method: as §1

S. aureus (8324-5) = system: S. aureus (8324-5)
Method: as §1

Streptococcus pneumoniae = conditions: Based on SBA agar (not confirmatory)
Method: as §1

E. coli (K12) [5] = system: E. coli (K12); remark: listed apart in the source
Method: (§2) MBC is the lowest concentration of compound required to kill an organism. […] In the case of small colony variants, growth might not occur earlier than 48 hours.

E. coli (WT) [6] = system: E. coli (WT); remark: listed apart in the source
Method: as §2

P. aeruginosa 4961 [7] = system: P. aeruginosa 4961; remark: listed apart in the source
Method: as §2

P. aeruginosa 4990 [8] = system: P. aeruginosa 4990; remark: listed apart in the source
Method: as §2

[9] = system: S. aureus USA 300 alpha toxin; conditions: 3 h incubation; hemolysis of 2% rabbit RBC, OD416 nm; FIG. 4
Method: • 1. Grow USA300 in MHA plate O/N • 2. Swab bacteria culture from plate and re-suspend in 2 ml PBS • 3. Spin and discard sup. • 4. Wash with 2 ml of PBS. • 5. Re-suspend in 2 ml LB. • 6. […] Add inoculum (make two different inoculum size: 1 and 1:10 in LB). […] Incubate at 370 C for 3 h • 11. Read growth OD600 (T3). • 12. Perform alpha hemolytic assay by using 2% rabbit RBC. Read OD416 nm (T3 hemolysis)

COCCCCCCCCCN1C[C@H](O)[C@@H](O)[C@H](O)[C@H]1CO.Cl [UV-4B, hydrochloric acid salt of N-(9-Methoxynonyl)deoxynojirimycin]
+ (+ OD600 <0.05): growth (OD600) (S. aureus (USA300); Table 4, 0.02 mg/ml) | growth (OD600) (S. aureus (USA300); Table 4, 0.04 mg/ml) | growth (OD600) (S. aureus (USA300); Table 4, 0.08 mg/ml) | growth (OD600) (S. aureus (USA300); Table 4, 0.16 mg/ml) | growth (OD600) (S. aureus (USA300); Table 4, 0.31 mg/ml) | growth (OD600) (P. aeruginosa 4858; Table 4, 0.02 mg/ml) | growth (OD600) (P. aeruginosa 4858; Table 4, 0.04 mg/ml) | growth (OD600) (P. aeruginosa 4858; Table 4, 0.08 mg/ml) | growth (OD600) (P. aeruginosa 4858; Table 4, 0.16 mg/ml) | growth (OD600) (P. aeruginosa 4858; Table 4, 0.31 mg/ml) | growth (OD600) (P. aeruginosa 4858; Table 4, 0.63 mg/ml) | growth (OD600) (S. aureus (8324-5); Table 4, 0.02 mg/ml) | growth (OD600) (S. aureus (8324-5); Table 4, 0.04 mg/ml) | growth (OD600) (S. aureus (8324-5); Table 4, 0.08 mg/ml) | growth (OD600) (S. aureus (8324-5); Table 4, 0.16 mg/ml) | growth (OD600) (S. aureus (8324-5); Table 4, 0.31 mg/ml) | growth (OD600) (S. aureus (8324-5); Table 4, 0.63 mg/ml)
1250 µg/mL: MIC (S. aureus (8324-5); Table 4)
62.5 µg/mL: MIC (S. aureus (USA300); Table 4)
+: visible growth (S. aureus (USA300); UV-4B 0.04 mg/ml) | visible growth (S. aureus (USA300); UV-4B 0.08 mg/ml) | visible growth (S. aureus (USA300); UV-4B 0.16 mg/ml) | visible growth (S. aureus (USA300); UV-4B 0.31 mg/ml) | visible growth (S. aureus (USA300); UV-4B 0.63 mg/ml) | visible growth (E. coli (K12) [1]; UV-4B 0.04 mg/ml) | visible growth (E. coli (K12) [1]; UV-4B 0.08 mg/ml) | visible growth (E. coli (K12) [1]; UV-4B 0.16 mg/ml) | visible growth (E. coli (K12) [1]; UV-4B 0.31 mg/ml) | visible growth (E. coli (K12) [1]; UV-4B 0.63 mg/ml) | visible growth (E. coli (K12) [1]; UV-4B 2.50 mg/ml) | visible growth (E. coli (WT) [2]; UV-4B 0.02 mg/ml) | visible growth (E. coli (WT) [2]; UV-4B 0.04 mg/ml) | visible growth (E. coli (WT) [2]; UV-4B 0.08 mg/ml) | visible growth (E. coli (WT) [2]; UV-4B 0.16 mg/ml) | visible growth (E. coli (WT) [2]; UV-4B 0.31 mg/ml) | visible growth (E. coli (WT) [2]; UV-4B 0.63 mg/ml) | visible growth (E. coli (WT) [2]; UV-4B 2.50 mg/ml) | visible growth (P. aeruginosa 4858; UV-4B 0.63 mg/ml) | visible growth (P. aeruginosa 4858; UV-4B 2.50 mg/ml) | visible growth (P. aeruginosa 4961 [3]; UV-4B 0.04 mg/ml) | visible growth (P. aeruginosa 4961 [3]; UV-4B 0.08 mg/ml) | visible growth (P. aeruginosa 4961 [3]; UV-4B 0.16 mg/ml) | visible growth (P. aeruginosa 4961 [3]; UV-4B 0.31 mg/ml) | visible growth (P. aeruginosa 4961 [3]; UV-4B 0.63 mg/ml) | visible growth (P. aeruginosa 4961 [3]; UV-4B 2.50 mg/ml) | visible growth (P. aeruginosa 4990 [4]; UV-4B 0.04 mg/ml) | visible growth (P. aeruginosa 4990 [4]; UV-4B 0.08 mg/ml) | visible growth (P. aeruginosa 4990 [4]; UV-4B 0.16 mg/ml) | visible growth (P. aeruginosa 4990 [4]; UV-4B 0.31 mg/ml) | visible growth (P. aeruginosa 4990 [4]; UV-4B 0.63 mg/ml) | visible growth (P. aeruginosa 4990 [4]; UV-4B 2.50 mg/ml) | visible growth (S. aureus (8324-5); UV-4B 0.04 mg/ml) | visible growth (S. aureus (8324-5); UV-4B 0.08 mg/ml) | visible growth (S. aureus (8324-5); UV-4B 0.16 mg/ml) | visible growth (S. aureus (8324-5); UV-4B 0.31 mg/ml) | visible growth (S. aureus (8324-5); UV-4B 0.63 mg/ml) | visible growth (Streptococcus pneumoniae; UV-4B 0.04 mg/ml) | visible growth (Streptococcus pneumoniae; UV-4B 0.08 mg/ml) | visible growth (Streptococcus pneumoniae; UV-4B 0.16 mg/ml) | visible growth (Streptococcus pneumoniae; UV-4B 0.31 mg/ml) | visible growth (Streptococcus pneumoniae; UV-4B 0.63 mg/ml) | visible growth (Streptococcus pneumoniae; UV-4B 2.50 mg/ml) | visible growth (Streptococcus pneumoniae; UV-4B 5 mg/ml) | growth after re-inoculation on BHI agar (E. coli (K12) [5]; UV-4B 2.50 mg/ml) | growth after re-inoculation on BHI agar (E. coli (K12) [5]; UV-4B 5.00 mg/ml) | growth after re-inoculation on BHI agar (E. coli (K12) [5]; UV-4B 10 mg/ml) | growth after re-inoculation on BHI agar (E. coli (K12) [5]; UV-4B 20 mg/ml) | growth after re-inoculation on BHI agar (E. coli (WT) [6]; UV-4B 2.50 mg/ml) | growth after re-inoculation on BHI agar (E. coli (WT) [6]; UV-4B 5.00 mg/ml) | growth after re-inoculation on BHI agar (P. aeruginosa 4961 [7]; UV-4B 2.50 mg/ml) | growth after re-inoculation on BHI agar (P. aeruginosa 4961 [7]; UV-4B 5.00 mg/ml) | growth after re-inoculation on BHI agar (P. aeruginosa 4961 [7]; UV-4B 10 mg/ml) | growth after re-inoculation on BHI agar (P. aeruginosa 4961 [7]; UV-4B 20 mg/ml) | growth after re-inoculation on BHI agar (P. aeruginosa 4990 [8]; UV-4B 2.50 mg/ml) | growth after re-inoculation on BHI agar (P. aeruginosa 4990 [8]; UV-4B 5.00 mg/ml) | growth after re-inoculation on BHI agar (P. aeruginosa 4990 [8]; UV-4B 10 mg/ml) | growth after re-inoculation on BHI agar (P. aeruginosa 4990 [8]; UV-4B 20 mg/ml)
higher than 2.5 mg/ml: concentration allowing inhibition of alpha toxin production [9]
10000 µg/mL: MIC (Streptococcus pneumoniae; Table 3) | MBC (E. coli (WT) [6]; UV-4B)
20000 µg/mL: MBC (E. coli (K12) [5]; UV-4B)
−: visible growth (S. aureus (USA300); UV-4B 2.50 mg/ml) | visible growth (S. aureus (USA300); UV-4B 5 mg/ml) | visible growth (S. aureus (USA300); UV-4B 10 mg/ml) | visible growth (S. aureus (USA300); UV-4B 20 mg/ml) | visible growth (E. coli (K12) [1]; UV-4B 5 mg/ml) | visible growth (E. coli (K12) [1]; UV-4B 10 mg/ml) | visible growth (E. coli (K12) [1]; UV-4B 20 mg/ml) | visible growth (E. coli (WT) [2]; UV-4B 5 mg/ml) | visible growth (E. coli (WT) [2]; UV-4B 10 mg/ml) | visible growth (P. aeruginosa 4858; UV-4B 5 mg/ml) | visible growth (P. aeruginosa 4858; UV-4B 10 mg/ml) | visible growth (P. aeruginosa 4858; UV-4B 20 mg/ml) | visible growth (P. aeruginosa 4961 [3]; UV-4B 5 mg/ml) | visible growth (P. aeruginosa 4961 [3]; UV-4B 10 mg/ml) | visible growth (P. aeruginosa 4961 [3]; UV-4B 20 mg/ml) | visible growth (P. aeruginosa 4990 [4]; UV-4B 5 mg/ml) | visible growth (P. aeruginosa 4990 [4]; UV-4B 10 mg/ml) | visible growth (P. aeruginosa 4990 [4]; UV-4B 20 mg/ml) | visible growth (S. aureus (8324-5); UV-4B 2.50 mg/ml) | visible growth (S. aureus (8324-5); UV-4B 5 mg/ml) | visible growth (S. aureus (8324-5); UV-4B 10 mg/ml) | visible growth (S. aureus (8324-5); UV-4B 20 mg/ml) | visible growth (Streptococcus pneumoniae; UV-4B 10 mg/ml) | growth after re-inoculation on BHI agar (E. coli (WT) [6]; UV-4B 10 mg/ml)
2500 µg/mL: MIC (S. aureus (USA300); Table 3, two independent tests) | MIC (P. aeruginosa 4858; Table 4) | MIC (S. aureus (8324-5); Table 3, two independent tests)
5000 µg/mL: MIC (E. coli (K12) [1]; Table 3) | MIC (E. coli (WT) [2]; Table 3) | MIC (P. aeruginosa 4858; Table 3) | MIC (P. aeruginosa 4961 [3]; Table 3) | MIC (P. aeruginosa 4990 [4]; Table 3)
− (− OD600 >0.05): growth (OD600) (S. aureus (USA300); Table 4, 0.63 mg/ml) | growth (OD600) (S. aureus (USA300); Table 4, 2.50 mg/ml) | growth (OD600) (S. aureus (USA300); Table 4, 5 mg/ml) | growth (OD600) (S. aureus (USA300); Table 4, 10 mg/ml) | growth (OD600) (S. aureus (USA300); Table 4, 20 mg/ml) | growth (OD600) (P. aeruginosa 4858; Table 4, 2.50 mg/ml) | growth (OD600) (P. aeruginosa 4858; Table 4, 5 mg/ml) | growth (OD600) (P. aeruginosa 4858; Table 4, 10 mg/ml) | growth (OD600) (P. aeruginosa 4858; Table 4, 20 mg/ml) | growth (OD600) (S. aureus (8324-5); Table 4, 2.50 mg/ml) | growth (OD600) (S. aureus (8324-5); Table 4, 5 mg/ml) | growth (OD600) (S. aureus (8324-5); Table 4, 10 mg/ml) | growth (OD600) (S. aureus (8324-5); Table 4, 20 mg/ml)
>20000 µg/mL: MBC (P. aeruginosa 4961 [7]; UV-4B) | MBC (P. aeruginosa 4990 [8]; UV-4B)
